Experimental data reported in ChEMBL document CHEMBL1201862, “PubChem BioAssay data set” (2004).
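All cell lines were grown in 96-well plates and treated with compound for 48 hours. The concentration for 50% growth inhibition is given as GI50.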 Active and inactive are the calls of the source. No stated cut-off is given here; in the data, active = GI50 up to about 1.1 µM and inactive = higher.

Assays:
Assay in all cases: NCI-60 cell line screen, 48 h
[1] = system: A498
[2] = system: A549
[3] = system: ACHN
[4] = system: HCT-116
[5] = system: HL-60
[6] = system: KM12
[7] = system: M14
[8] = system: NCI-H226
[9] = system: NCI-H23
[10] = system: NCI-H460
[11] = system: OVCAR-3
[12] = system: OVCAR-4
[13] = system: RPMI-8226
[14] = system: SF-295
[15] = system: SK-MEL-2
[16] = system: SN12C
[17] = system: SW-620
[18] = system: RXF 393
[19] = system: MDA-MB-435

| Structure (SMILES) | GI50 [1] | GI50 [2] | GI50 [3] | GI50 [4] | GI50 [5] | GI50 [6] | GI50 [7] | GI50 [8] | GI50 [9] | GI50 [10] | GI50 [11] | GI50 [12] | GI50 [13] | GI50 [14] | GI50 [15] | GI50 [16] | GI50 [17] | GI50 [18] | GI50 [19] |
| --- | --- | --- | --- | --- | --- | --- | --- | --- | --- | --- | --- | --- | --- | --- | --- | --- | --- | --- | --- |
| C/C(CN1C(=O)c2ccccc2C1=O)=N\NS(=O)(=O)c1cccc(C(=O)O)c1 | > 100 µM (inactive) | > 100 µM (inactive) | > 100 µM (inactive) | > 100 µM (inactive) | > 100 µM (inactive) | > 100 µM (inactive) | > 100 µM (inactive) | > 100 µM (inactive) | > 100 µM (inactive) | > 100 µM (inactive) | > 100 µM (inactive) | > 100 µM (inactive) | > 100 µM (inactive) | > 100 µM (inactive) | > 100 µM (inactive) | > 100 µM (inactive) | > 100 µM (inactive) |  |  |
| NCCc1ccc2oc3cc(=O)c4ccccc4c-3nc2c1 | 13.3 µM (inactive) | 0.478 µM (active) | 2.61 µM (inactive) | 1.41 µM (inactive) | 1.68 µM (inactive) | 2.67 µM (inactive) | 1.71 µM (inactive) | 5.19 µM (inactive) | 0.746 µM (active) | 0.9 µM (active) | 2.16 µM (inactive) | 4.68 µM (inactive) | 2.55 µM (inactive) | 2.3 µM (inactive) | 1.71 µM (inactive) | 2.22 µM (inactive) | 2.19 µM (inactive) | 2.84 µM (inactive) |  |
| CC(=O)NNc1nc(C)c(C(=O)NNC(=O)C(=O)Nc2c(Cl)cc([N+](=O)[O-])cc2Cl)s1 | 21.6 µM (inactive) | 31.6 µM (inactive) | 31.8 µM (inactive) | 34.5 µM (inactive) | 28.2 µM (inactive) | 40 µM (inactive) | 52.1 µM (inactive) | 24 µM (inactive) | 18.9 µM (inactive) | 43.2 µM (inactive) | 21 µM (inactive) | 22.1 µM (inactive) | 44.7 µM (inactive) | 34.8 µM (inactive) | 43.5 µM (inactive) | 42.7 µM (inactive) | 24.5 µM (inactive) |  |  |
| CC(=O)OCC1=C(C)C(OC(=O)C(OC(C)=O)[C@@H](NC(=O)c2ccccc2)c2ccccc2)CCC1(C)C (stereo partly drawn) | > 100 µM (inactive) | > 100 µM (inactive) | > 100 µM (inactive) | > 100 µM (inactive) | > 100 µM (inactive) | > 100 µM (inactive) |  | > 100 µM (inactive) | > 100 µM (inactive) | > 100 µM (inactive) | > 100 µM (inactive) | > 100 µM (inactive) | > 100 µM (inactive) | > 100 µM (inactive) |  | > 100 µM (inactive) | > 100 µM (inactive) | > 100 µM (inactive) | > 100 µM (inactive) |
| O=C1C[C@@H]2[C@@H](C=CC23CC3)N1O | > 100 µM (inactive) | > 100 µM (inactive) |  | > 100 µM (inactive) | > 100 µM (inactive) | > 100 µM (inactive) | > 100 µM (inactive) | > 100 µM (inactive) | > 100 µM (inactive) | > 100 µM (inactive) |  | > 100 µM (inactive) | > 100 µM (inactive) | > 100 µM (inactive) | > 100 µM (inactive) | > 100 µM (inactive) | > 100 µM (inactive) | > 100 µM (inactive) |  |
| Cc1cc(N(CCC#N)CCC#N)ccc1/C=C\C(=O)Nc1ccccc1 | > 100 µM (inactive) | > 100 µM (inactive) | 4.43 µM (inactive) | > 100 µM (inactive) | 26 µM (inactive) | 97.5 µM (inactive) | 2.9 µM (inactive) | > 100 µM (inactive) | > 100 µM (inactive) | 71.3 µM (inactive) | > 100 µM (inactive) | 62.4 µM (inactive) | > 100 µM (inactive) | 86.1 µM (inactive) | > 100 µM (inactive) | > 100 µM (inactive) | > 100 µM (inactive) |  |  |
| C[N+](C)(C)CC1CCC/C1=N/O (stereo not drawn) | > 100 µM (inactive) | > 100 µM (inactive) | > 100 µM (inactive) | 21.5 µM (inactive) | 20.1 µM (inactive) | > 100 µM (inactive) | > 100 µM (inactive) | > 100 µM (inactive) | > 100 µM (inactive) | 50.4 µM (inactive) | > 100 µM (inactive) | > 100 µM (inactive) | 25.7 µM (inactive) | > 100 µM (inactive) | > 100 µM (inactive) | > 100 µM (inactive) | 2.62 µM (inactive) | 37.1 µM (inactive) |  |
| CCN1c2ccccc2C(C(SC)S(=O)(=O)c2ccc(C)cc2)c2c1[nH]c(=O)n(C)c2=O (stereo not drawn) | > 100 µM (inactive) | > 100 µM (inactive) |  | > 100 µM (inactive) | 89.9 µM (inactive) | > 100 µM (inactive) |  | > 100 µM (inactive) | > 100 µM (inactive) |  | > 100 µM (inactive) | > 100 µM (inactive) | > 100 µM (inactive) | > 100 µM (inactive) | 71.1 µM (inactive) | > 100 µM (inactive) | > 100 µM (inactive) |  |  |
| COC(=O)C1CC(=O)CCC1c1ccccc1 (stereo not drawn) | > 100 µM (inactive) | > 100 µM (inactive) | > 100 µM (inactive) | > 100 µM (inactive) | > 100 µM (inactive) | > 100 µM (inactive) | > 100 µM (inactive) | > 100 µM (inactive) | > 100 µM (inactive) | > 100 µM (inactive) | > 100 µM (inactive) | > 100 µM (inactive) | > 100 µM (inactive) | > 100 µM (inactive) | > 100 µM (inactive) | > 100 µM (inactive) | > 100 µM (inactive) |  |  |
| CC1(OCc2ccccc2)C(=O)N2C1NCC2(C)C (stereo not drawn) | > 100 µM (inactive) | > 100 µM (inactive) | > 100 µM (inactive) | > 100 µM (inactive) | > 100 µM (inactive) |  | > 100 µM (inactive) | > 100 µM (inactive) | > 100 µM (inactive) | > 100 µM (inactive) | > 100 µM (inactive) | > 100 µM (inactive) | > 100 µM (inactive) | > 100 µM (inactive) | > 100 µM (inactive) | > 100 µM (inactive) | > 100 µM (inactive) | > 100 µM (inactive) |  |
| CCc1cccc(C(C)C)c1NC(=O)C(=O)CC(=O)c1c(C)[n+]([O-])c2ccccc2[n+]1[O-] | > 100 µM (inactive) | > 100 µM (inactive) | 77.6 µM (inactive) | > 100 µM (inactive) | > 100 µM (inactive) |  | > 100 µM (inactive) | > 100 µM (inactive) | > 100 µM (inactive) | > 100 µM (inactive) |  | > 100 µM (inactive) | 30.1 µM (inactive) |  | > 100 µM (inactive) | > 100 µM (inactive) | > 100 µM (inactive) | > 100 µM (inactive) |  |
| O=c1[nH]c(=O)n(C2CC(O)C(CO)O2)cc1OS(=O)(=O)C(F)(F)F (stereo not drawn) | > 100 µM (inactive) | > 100 µM (inactive) | > 100 µM (inactive) | > 100 µM (inactive) | > 100 µM (inactive) | > 100 µM (inactive) | > 100 µM (inactive) | > 100 µM (inactive) | > 100 µM (inactive) | > 100 µM (inactive) | > 100 µM (inactive) | > 100 µM (inactive) | > 100 µM (inactive) | > 100 µM (inactive) | > 100 µM (inactive) | > 100 µM (inactive) | > 100 µM (inactive) | > 100 µM (inactive) |  |
| ClCCC[Si]12OCCN(CCO1)CCO2 | > 100 µM (inactive) | > 100 µM (inactive) | > 100 µM (inactive) | > 100 µM (inactive) | > 100 µM (inactive) | > 100 µM (inactive) |  | > 100 µM (inactive) | > 100 µM (inactive) | > 100 µM (inactive) | > 100 µM (inactive) |  | > 100 µM (inactive) | > 100 µM (inactive) | > 100 µM (inactive) | > 100 µM (inactive) | > 100 µM (inactive) | > 100 µM (inactive) |  |
| COC(=O)[C@@H]1CCCCC[C@H]2C(CO)=C(C)C(=O)C12 (stereo partly drawn) | > 100 µM (inactive) | > 100 µM (inactive) | > 100 µM (inactive) | > 100 µM (inactive) | > 100 µM (inactive) | > 100 µM (inactive) | > 100 µM (inactive) | 99.1 µM (inactive) | > 100 µM (inactive) | > 100 µM (inactive) |  | > 100 µM (inactive) | > 100 µM (inactive) | > 100 µM (inactive) | > 100 µM (inactive) | > 100 µM (inactive) | > 100 µM (inactive) | > 100 µM (inactive) |  |
| COc1ccc(/C=C2\N=C(c3ccccc3)N(Nc3nnc(NN4C(=O)/C(=C/c5ccc(OC)cc5)N=C4c4ccccc4)c4ccccc34)C2=O)cc1 | > 100 µM (inactive) | > 100 µM (inactive) | > 100 µM (inactive) | 94.4 µM (inactive) | 30 µM (inactive) | 17.2 µM (inactive) | > 100 µM (inactive) | 96.4 µM (inactive) | > 100 µM (inactive) | > 100 µM (inactive) |  | 53.2 µM (inactive) | 26.4 µM (inactive) | > 100 µM (inactive) |  | 68.5 µM (inactive) | 55.2 µM (inactive) | > 100 µM (inactive) |  |
| Cn1cnc(CCc2ccccc2)n1 | > 100 µM (inactive) | > 100 µM (inactive) | > 100 µM (inactive) | > 100 µM (inactive) | > 100 µM (inactive) | > 100 µM (inactive) | > 100 µM (inactive) | > 100 µM (inactive) | > 100 µM (inactive) | > 100 µM (inactive) | > 100 µM (inactive) | > 100 µM (inactive) | > 100 µM (inactive) | > 100 µM (inactive) | > 100 µM (inactive) | > 100 µM (inactive) | > 100 µM (inactive) | > 100 µM (inactive) |  |
